From patent US20230257393A1, “MACROMOLECULE-SUPPORTED THIENOAZEPINE COMPOUNDS, AND USES THEREOF” (BOLT BIOTHERAPEUTICS, INC., priority 2020, published 2023)
Like-named read-outs stand apart in the source and are kept apart here.

Key:
[1] = target: T1, human TLR8 (Homo sapiens, UniProt Q9NR97); experiment: HEK Reporter Assay, HEK293 NFKB reporter cells expressing human TLR8; assay type: cell-based; conditions: read-out: HEK293 hTLR8 EC50
T1 construct: host or cells: HEK293 reporter cells
T1 sequence (Q9NR97 27-1041): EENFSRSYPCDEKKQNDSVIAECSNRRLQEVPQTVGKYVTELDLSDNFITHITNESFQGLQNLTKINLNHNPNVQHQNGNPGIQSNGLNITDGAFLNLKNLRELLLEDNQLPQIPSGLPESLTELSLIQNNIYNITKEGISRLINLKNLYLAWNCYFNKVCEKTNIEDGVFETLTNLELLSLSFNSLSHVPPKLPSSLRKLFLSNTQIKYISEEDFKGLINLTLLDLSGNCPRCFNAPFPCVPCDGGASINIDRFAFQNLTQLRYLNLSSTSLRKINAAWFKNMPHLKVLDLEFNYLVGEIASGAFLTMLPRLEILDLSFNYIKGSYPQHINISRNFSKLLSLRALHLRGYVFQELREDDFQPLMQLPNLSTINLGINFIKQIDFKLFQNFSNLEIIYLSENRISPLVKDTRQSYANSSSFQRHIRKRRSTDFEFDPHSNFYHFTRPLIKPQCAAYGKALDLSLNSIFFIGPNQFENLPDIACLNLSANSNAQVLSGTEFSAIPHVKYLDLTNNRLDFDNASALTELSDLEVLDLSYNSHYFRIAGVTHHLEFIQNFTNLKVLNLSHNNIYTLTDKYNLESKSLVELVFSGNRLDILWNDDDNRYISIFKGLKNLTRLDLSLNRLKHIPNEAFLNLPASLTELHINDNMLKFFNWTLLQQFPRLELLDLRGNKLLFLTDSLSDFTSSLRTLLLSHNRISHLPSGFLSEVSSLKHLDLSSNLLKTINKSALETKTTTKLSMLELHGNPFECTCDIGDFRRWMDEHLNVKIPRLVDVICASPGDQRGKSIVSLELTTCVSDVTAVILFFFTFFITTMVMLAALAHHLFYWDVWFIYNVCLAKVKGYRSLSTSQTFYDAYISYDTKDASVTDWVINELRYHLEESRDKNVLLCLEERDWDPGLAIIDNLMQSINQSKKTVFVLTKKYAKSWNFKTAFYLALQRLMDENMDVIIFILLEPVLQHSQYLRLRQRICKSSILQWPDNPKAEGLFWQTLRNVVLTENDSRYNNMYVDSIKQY
Experimental: (§1) Each compound was synthesized, purified, and characterized by mass spectrometry and shown to have the mass indicated. Additional experimental procedures are found in the Examples. Activity against HEK293 NFKB reporter cells expressing human TLR7 or human TLR8 was measured according to Example 202.
(§2) HEK293 reporter cells expressing human TLR7 or human TLR8 were purchased from Invivogen and vendor protocols were followed for cellular propagation and experimentation. Briefly, cells were grown to 80-85% confluence at 5% CO2 in DMEM supplemented with 10% FBS, Zeocin, and Blasticidin. Cells were then seeded in 96-well flat plates at 4×10^4 cells/well with substrate containing HEK detection medium and immunostimulatory molecules. Activity was measured using a plate reader at 620-655 nm wavelength.

[2] = target: T2, human TLR7 (Homo sapiens, UniProt Q9NYK1); experiment: HEK Reporter Assay, HEK293 NFKB reporter cells expressing human TLR7; assay type: cell-based; conditions: read-out: HEK293 hTLR7 EC50
T2 construct: host or cells: HEK293 reporter cells
T2 sequence (Q9NYK1 27-1049): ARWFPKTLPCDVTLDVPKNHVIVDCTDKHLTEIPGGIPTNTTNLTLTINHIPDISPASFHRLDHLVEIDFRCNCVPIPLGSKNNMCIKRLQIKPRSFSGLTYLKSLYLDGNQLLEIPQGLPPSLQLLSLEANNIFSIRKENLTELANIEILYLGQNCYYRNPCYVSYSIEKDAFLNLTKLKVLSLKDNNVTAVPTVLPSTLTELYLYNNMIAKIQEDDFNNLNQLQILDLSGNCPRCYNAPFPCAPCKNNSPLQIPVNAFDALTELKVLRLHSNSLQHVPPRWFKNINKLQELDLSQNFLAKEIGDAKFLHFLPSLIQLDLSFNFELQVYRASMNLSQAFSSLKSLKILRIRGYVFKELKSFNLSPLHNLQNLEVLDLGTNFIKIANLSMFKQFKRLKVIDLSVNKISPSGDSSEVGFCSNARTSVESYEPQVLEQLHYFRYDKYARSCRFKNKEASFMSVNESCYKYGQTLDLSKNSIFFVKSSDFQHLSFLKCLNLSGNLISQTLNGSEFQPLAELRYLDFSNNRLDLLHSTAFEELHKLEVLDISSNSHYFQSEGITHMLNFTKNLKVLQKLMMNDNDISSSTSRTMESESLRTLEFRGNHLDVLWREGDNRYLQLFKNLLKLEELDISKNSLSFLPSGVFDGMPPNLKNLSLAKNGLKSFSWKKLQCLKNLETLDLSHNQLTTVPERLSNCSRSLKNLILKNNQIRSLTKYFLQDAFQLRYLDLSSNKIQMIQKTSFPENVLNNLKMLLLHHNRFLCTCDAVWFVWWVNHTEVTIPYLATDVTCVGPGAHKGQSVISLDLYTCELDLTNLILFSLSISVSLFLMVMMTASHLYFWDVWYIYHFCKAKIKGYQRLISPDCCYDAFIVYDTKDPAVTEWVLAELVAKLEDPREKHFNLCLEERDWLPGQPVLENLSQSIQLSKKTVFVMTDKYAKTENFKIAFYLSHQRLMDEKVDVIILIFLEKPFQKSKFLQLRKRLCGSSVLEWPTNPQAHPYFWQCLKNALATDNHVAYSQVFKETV
Experimental: as §1, §2

EC50 ([1]; Table 1c) [µM]	EC50 ([2]; Table 1c) [µM]	further results	Compound
		EC50 ([1]; Table 1a): > 9 µM; EC50 ([2]; Table 1a): > 9 µM	CCCN(CCC)C(=O)C1=Cc2sc(C(=O)Nc3cncnc3)cc2N=C(N)C1 [TAZ-27, 5-amino-N7,N7-dipropyl-N2-pyrimidin-5-yl-6H-thieno[3,2-b]azepine-2,7-dicarboxamide]
		EC50 ([1]; Table 1a): > 9 µM; EC50 ([2]; Table 1a): > 9 µM	CCCN(CCC)C(=O)C1=Cc2sc3ccccc3c2N=C(N)C1 [TAZ-28, 2-amino-N,N-dipropyl-3H-benzo[4,5]thieno[3,2-b]azepine-4-carboxamide]
		EC50 ([1]; Table 1a): > 9 µM; EC50 ([2]; Table 1a): > 9 µM	CCCN(Cc1ccc(CNC(=O)OC(C)(C)C)cc1)C(=O)C1=Cc2sccc2N=C(N)C1 [TAZ-29, tert-butyl (4-((5-amino-N-propyl-6H-thieno[3,2-b]azepine-7-carboxamido)methyl)benzyl)carbamate]
		EC50 ([1]; Table 1b): 2.94 µM; EC50 ([2]; Table 1b): > 9 µM	CCCN(CCCc1ccc(CN2CCNCC2)cc1)C(=O)C1=Cc2sccc2N=C(N)C1 [TAZ-37]
		EC50 ([1]; Table 1b): 2.98 µM; EC50 ([2]; Table 1b): > 9 µM	CCCN(OCC)C(=O)C1=Cc2sc(COCCCN)cc2N=C(N)C1 [TAZ-73]
		EC50 ([1]; Table 1b): 3.79 µM; EC50 ([2]; Table 1b): 4 µM	CCCN(CCC)C(=O)C1=Cc2sc(COCCNC(=O)OC(C)(C)C)cc2N=C(N)C1 [TAZ-80]
≥ 9	≥ 9		CN(C)Cc1ccc(CN(CCC(F)(F)F)C(=O)C2=Cc3sc(CCCCCN)cc3N=C(N)C2)cc1 [TAZ-117]
≥ 9	≥ 9		CCCN(CCC)C(=O)C1=Cc2sc(CC(=O)NCCN)cc2N=C(N)C1 [TAZ-120]
≥ 9	≥ 9		CCCN(Cc1cnc(CN(C)C)c(C(F)(F)F)c1)C(=O)C1=Cc2sc(CCCCCNC(=O)OC(C)(C)C)cc2N=C(N)C1 [TAZ-128]
≥ 9	≥ 9		CCCN(Cc1ccc(CN(C)C)c(C(F)(F)F)n1)C(=O)C1=Cc2sc(CCCCCNC(=O)OC(C)(C)C)cc2N=C(N)C1 [TAZ-146]
3.48	0.824		CCCN(CCCNC(=O)OC1CCC1)C(=O)C1=Cc2sc(C#CC3CNC3)cc2N=C(N)C1 [TAZ-192]
1.52	3.36		CCCN(OCC)C(=O)C1=Cc2sc(C#CC3CNC3)cc2N=C(N)C1 [TAZ-193]
≥ 9	≥ 9		CCCN(OCC)C(=O)C1=Cc2sc(CN3CCN(c4ccc(C(=O)OC(C)(C)C)cc4)CC3)cc2N=C(N)C1 [TAZ-205]
≥ 9	≥ 9		CCCN(OCC)C(=O)C1=Cc2sc(CN3CC4(CNC4)C3)cc2N=C(N)C1 [TAZ-207]
4.43	0.436		CCCN(OCC)C(=O)C1=Cc2sc(CN3CCCN(C(=O)OC(C)(C)C)CC3)cc2N=C(N)C1 [TAZ-226]
≥ 9	≥ 9		CCCN(OCC)C(=O)C1=Cc2sc(CN3CCC(c4ccc(C(=O)OC)cc4)CC3)cc2N=C(N)C1 [TAZ-229]
3.05	4.57		CCCN(OCC)C(=O)C1=Cc2sc(CN3C[C@H]4C[C@@H]3CN4)cc2N=C(N)C1 [TAZ-235]
≥ 9	≥ 9		CCONC(=O)C1=Cc2sc(CC3CNC3)cc2N=C(N)C1 [TAZ-250]
